Measured values: patent US20050215551A1, “1-[2H-1-benzopyran-2-one-8-yl]- piperazine derivatives for the treatment of movement disorders” (SOLVAY PHARMACEUTICALS B.V., priority 2004, published 2005)

Legend:
Neuropeptide Y1 = Neuropeptide Y1 (Homo sapiens, UniProt P25929); experiment: Receptor binding Neuropeptide Y1; conditions: radioligand [125I]-PYY, read-out: Ki(nM) Compound 1
Experimental: (§1) Receptor binding data were obtained by CEREP (128, rue Danton, 92500 Rueil-Malmaison, France) or at Solvay Pharmaceuticals B.V., using well documented standard procedures. Affinity for 5-HT1A receptors for instance, was determined by testing the ability of the compounds of the invention to displace [^3H]-2-(di-n-propylamino)-8-hydroxytetralin ([^3H]-8-OH-DPAT) from its specific binding sites in rat frontal cortex homogenates. This test is based on the method described by Gozlan et al. (Nature, 305, (1983), pages 140-142).
(§2) The binding data collected in the table below were either obtained by CEREP (128, rue Danton, 92500 Rueil-Malmaison, France) or at Solvay Pharmaceuticals B.V., using well documented standard procedures.

Galanin-GAL1 = Galanin-GAL1 (Homo sapiens, UniProt P47211); experiment: Receptor binding Galanin-GAL1; conditions: radioligand [125I]-galanin, read-out: Ki(nM) Compound 1
Experimental: as §1, §2

CCR1 = CCR1 (Homo sapiens, UniProt P32246); experiment: Receptor binding CCR1; conditions: radioligand [125I]-MIP-1a, read-out: Ki(nM) Compound 1
CCR1, sequence (P32246 whole entry): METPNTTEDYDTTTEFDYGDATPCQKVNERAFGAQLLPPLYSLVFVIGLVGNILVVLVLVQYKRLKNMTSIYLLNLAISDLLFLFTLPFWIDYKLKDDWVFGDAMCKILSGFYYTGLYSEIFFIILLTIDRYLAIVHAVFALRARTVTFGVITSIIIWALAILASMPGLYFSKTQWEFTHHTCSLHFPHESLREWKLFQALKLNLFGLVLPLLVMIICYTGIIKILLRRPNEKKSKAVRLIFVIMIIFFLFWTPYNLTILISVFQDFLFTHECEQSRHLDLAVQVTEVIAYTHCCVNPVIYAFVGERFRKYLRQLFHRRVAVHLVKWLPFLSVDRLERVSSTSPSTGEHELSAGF
Experimental: as §1, §2

nociceptin (ORL1) = nociceptin (ORL1) (Homo sapiens, UniProt P41146); experiment: Receptor binding nociceptin (ORL1); conditions: radioligand [3H]-nociceptine, read-out: Ki(nM) Compound 1
Experimental: as §1, §2

α1B-adrenergic = α1B-adrenergic (Rattus norvegicus, UniProt P15823); experiment: Receptor binding α1B-adrenergic; conditions: radioligand [3H]-prazosin, read-out: Ki(nM) Compound 1
α1B-adrenergic, sequence (P15823 whole entry): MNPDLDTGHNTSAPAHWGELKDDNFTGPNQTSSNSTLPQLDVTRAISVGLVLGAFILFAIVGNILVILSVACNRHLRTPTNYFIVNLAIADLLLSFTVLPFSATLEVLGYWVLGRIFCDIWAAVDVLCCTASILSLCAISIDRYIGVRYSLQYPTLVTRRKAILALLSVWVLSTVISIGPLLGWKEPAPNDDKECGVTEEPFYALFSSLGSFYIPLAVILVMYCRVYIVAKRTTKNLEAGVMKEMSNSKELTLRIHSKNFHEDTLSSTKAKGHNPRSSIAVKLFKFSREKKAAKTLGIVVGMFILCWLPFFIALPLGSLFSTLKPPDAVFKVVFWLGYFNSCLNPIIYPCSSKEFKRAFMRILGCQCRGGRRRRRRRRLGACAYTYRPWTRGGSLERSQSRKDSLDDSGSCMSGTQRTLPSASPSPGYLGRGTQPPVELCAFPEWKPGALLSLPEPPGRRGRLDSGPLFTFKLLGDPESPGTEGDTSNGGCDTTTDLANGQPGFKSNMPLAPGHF
Experimental: as §1, §2

5-HT6 = 5-HT6 (Homo sapiens, UniProt P50406); experiment: Receptor binding 5-HT6; conditions: radioligand [3H]-LSD, read-out: Ki(nM) Compound 1
Experimental: as §1, §2

bradykinin = bradykinin (Homo sapiens, UniProt P30411); experiment: Receptor binding bradykinin; conditions: radioligand [3H]-bradykinin, read-out: Ki(nM) Compound 1
Experimental: as §1, §2

5-HT2A = 5-HT2A (Homo sapiens, UniProt P28223); experiment: Receptor binding 5-HT2A; conditions: radioligand [3H]-ketanserin, read-out: Ki(nM) Compound 1
5-HT2A, sequence (P28223 whole entry): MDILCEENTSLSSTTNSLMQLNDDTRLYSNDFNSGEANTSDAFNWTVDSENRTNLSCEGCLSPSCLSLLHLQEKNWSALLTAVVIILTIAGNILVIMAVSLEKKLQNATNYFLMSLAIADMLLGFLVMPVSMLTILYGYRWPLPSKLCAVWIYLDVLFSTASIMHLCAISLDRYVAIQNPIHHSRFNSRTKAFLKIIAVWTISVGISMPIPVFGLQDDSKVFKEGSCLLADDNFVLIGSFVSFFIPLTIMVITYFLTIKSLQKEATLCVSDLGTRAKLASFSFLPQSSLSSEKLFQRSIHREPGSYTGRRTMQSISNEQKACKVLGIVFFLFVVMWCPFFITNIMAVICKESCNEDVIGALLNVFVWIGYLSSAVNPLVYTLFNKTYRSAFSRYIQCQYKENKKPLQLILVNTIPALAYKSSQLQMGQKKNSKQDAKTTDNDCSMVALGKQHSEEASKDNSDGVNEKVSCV
Experimental: as §1, §2

5-HT1A = target: T1, 5-HT1A (Rattus norvegicus, UniProt P19327); experiment: In vivo 5-HT1A agonism: lower lip retraction (LLR); conditions: 60 minutes after oral administration
T1 construct: from tissue; host or cells: whole animal (in vivo behavioural test)
T1 sequence (P19327 whole entry): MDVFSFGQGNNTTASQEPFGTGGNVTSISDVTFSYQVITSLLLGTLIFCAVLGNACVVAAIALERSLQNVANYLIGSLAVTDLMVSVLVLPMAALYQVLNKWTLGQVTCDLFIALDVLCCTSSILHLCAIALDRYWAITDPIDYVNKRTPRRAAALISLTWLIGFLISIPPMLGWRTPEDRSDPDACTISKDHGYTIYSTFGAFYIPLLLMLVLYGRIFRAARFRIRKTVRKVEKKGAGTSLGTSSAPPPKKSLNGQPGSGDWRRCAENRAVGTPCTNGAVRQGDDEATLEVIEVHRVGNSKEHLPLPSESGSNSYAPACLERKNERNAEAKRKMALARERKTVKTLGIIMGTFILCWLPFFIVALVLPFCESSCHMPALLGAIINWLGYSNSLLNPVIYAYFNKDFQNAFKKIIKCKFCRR
Experimental: Lower lip retraction was measured according to the method described by Berendsen et al., (Pharmacol. Biochem. Behav. 33, (1989), 821-827).

Muscarine-M5 = Muscarine-M5 (Homo sapiens, UniProt P08912); experiment: Receptor binding Muscarine-M5; conditions: radioligand [3H]-4-DAMP, read-out: Ki(nM) Compound 1
Muscarine-M5, sequence (P08912 whole entry): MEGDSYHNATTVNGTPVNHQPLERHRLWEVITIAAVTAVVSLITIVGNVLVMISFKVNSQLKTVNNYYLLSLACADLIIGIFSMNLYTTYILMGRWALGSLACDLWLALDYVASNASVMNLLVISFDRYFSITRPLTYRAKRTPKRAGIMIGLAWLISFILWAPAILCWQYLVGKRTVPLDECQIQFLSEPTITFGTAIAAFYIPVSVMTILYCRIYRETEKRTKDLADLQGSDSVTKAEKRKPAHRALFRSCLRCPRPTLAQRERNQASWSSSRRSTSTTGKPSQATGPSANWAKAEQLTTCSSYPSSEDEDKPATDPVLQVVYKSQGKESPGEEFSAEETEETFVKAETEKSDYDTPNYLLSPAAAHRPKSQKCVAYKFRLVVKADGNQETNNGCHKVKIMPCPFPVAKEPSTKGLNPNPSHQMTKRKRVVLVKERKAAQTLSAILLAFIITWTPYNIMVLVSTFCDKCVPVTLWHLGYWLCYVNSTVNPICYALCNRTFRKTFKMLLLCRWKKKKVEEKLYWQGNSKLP
Experimental: as §1, §2

Neurotensin-NT1 = Neurotensin-NT1 (Homo sapiens, UniProt P30989); experiment: Receptor binding Neurotensin-NT1; conditions: radioligand [125I]-neurotensin, read-out: Ki(nM) Compound 1
Neurotensin-NT1, sequence (P30989 whole entry): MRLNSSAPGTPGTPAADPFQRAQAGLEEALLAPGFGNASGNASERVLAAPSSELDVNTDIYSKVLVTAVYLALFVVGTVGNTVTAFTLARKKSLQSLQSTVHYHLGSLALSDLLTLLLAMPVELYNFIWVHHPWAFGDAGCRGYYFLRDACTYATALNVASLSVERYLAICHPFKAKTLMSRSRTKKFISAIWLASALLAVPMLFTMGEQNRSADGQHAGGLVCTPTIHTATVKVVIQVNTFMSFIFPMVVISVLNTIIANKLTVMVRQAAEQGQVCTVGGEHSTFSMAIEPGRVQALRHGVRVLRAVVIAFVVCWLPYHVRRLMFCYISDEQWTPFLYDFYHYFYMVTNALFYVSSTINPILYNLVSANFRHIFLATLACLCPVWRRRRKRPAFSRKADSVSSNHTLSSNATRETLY
Experimental: as §1, §2

Histamine-H1 = Histamine-H1 (Homo sapiens, UniProt P35367); experiment: Receptor binding Histamine-H1; conditions: radioligand [3H]-pyrilamine, read-out: Ki(nM) Compound 1
Histamine-H1, sequence (P35367 whole entry): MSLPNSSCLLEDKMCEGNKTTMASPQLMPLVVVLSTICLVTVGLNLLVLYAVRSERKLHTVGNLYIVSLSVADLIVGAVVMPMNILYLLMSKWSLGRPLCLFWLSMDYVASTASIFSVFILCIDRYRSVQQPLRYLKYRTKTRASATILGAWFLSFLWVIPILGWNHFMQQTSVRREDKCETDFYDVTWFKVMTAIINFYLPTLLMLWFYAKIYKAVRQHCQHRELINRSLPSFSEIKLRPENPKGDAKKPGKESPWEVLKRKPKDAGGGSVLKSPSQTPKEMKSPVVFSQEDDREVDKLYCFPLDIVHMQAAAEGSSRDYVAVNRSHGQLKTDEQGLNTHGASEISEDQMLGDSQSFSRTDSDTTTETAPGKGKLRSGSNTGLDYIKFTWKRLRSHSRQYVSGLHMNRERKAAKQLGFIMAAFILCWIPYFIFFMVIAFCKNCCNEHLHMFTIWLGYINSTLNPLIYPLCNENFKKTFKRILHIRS
Experimental: as §1, §2

Prostaglandin-I2 = Prostaglandin-I2 (Homo sapiens, UniProt P43119); experiment: Receptor binding Prostaglandin-I2; conditions: radioligand [3H]-iloprost, read-out: Ki(nM) Compound 1
Experimental: as §1, §2

nicotine = nicotine (Rattus norvegicus, UniProt P09483+P12390); experiment: Receptor binding nicotine; conditions: radioligand [3H]-cytisine, read-out: Ki(nM) Compound 1
Experimental: as §1, §2

Neurokinin-NK2 = Neurokinin-NK2 (Homo sapiens, UniProt P21452); experiment: Receptor binding Neurokinin-NK2; conditions: radioligand [125I]-neurokininA, read-out: Ki(nM) Compound 1
Neurokinin-NK2, sequence (P21452 whole entry): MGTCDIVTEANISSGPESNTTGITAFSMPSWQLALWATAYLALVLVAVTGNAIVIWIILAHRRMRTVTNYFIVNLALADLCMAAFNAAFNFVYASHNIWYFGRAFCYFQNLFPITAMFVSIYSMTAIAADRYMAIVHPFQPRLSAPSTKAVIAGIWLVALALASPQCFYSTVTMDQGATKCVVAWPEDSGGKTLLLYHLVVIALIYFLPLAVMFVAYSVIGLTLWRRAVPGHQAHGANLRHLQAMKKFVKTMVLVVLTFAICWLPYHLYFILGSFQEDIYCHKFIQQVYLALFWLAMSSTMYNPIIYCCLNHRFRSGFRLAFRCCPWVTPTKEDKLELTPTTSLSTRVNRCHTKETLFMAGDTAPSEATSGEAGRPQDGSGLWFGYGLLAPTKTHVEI
Experimental: as §1, §2

Glycine strychn. insens. = Glycine strychn. insens. (Rattus norvegicus, UniProt P35439); experiment: Receptor binding Glycine strychn. insens.; conditions: radioligand [3H]-MDL105519, read-out: Ki(nM) Compound 1
Experimental: as §1, §2

Muscarine-M1 = Muscarine-M1 (Homo sapiens, UniProt P11229); experiment: Receptor binding Muscarine-M1; conditions: radioligand [3H]-pirenzepine, read-out: Ki(nM) Compound 1
Muscarine-M1, sequence (P11229 whole entry): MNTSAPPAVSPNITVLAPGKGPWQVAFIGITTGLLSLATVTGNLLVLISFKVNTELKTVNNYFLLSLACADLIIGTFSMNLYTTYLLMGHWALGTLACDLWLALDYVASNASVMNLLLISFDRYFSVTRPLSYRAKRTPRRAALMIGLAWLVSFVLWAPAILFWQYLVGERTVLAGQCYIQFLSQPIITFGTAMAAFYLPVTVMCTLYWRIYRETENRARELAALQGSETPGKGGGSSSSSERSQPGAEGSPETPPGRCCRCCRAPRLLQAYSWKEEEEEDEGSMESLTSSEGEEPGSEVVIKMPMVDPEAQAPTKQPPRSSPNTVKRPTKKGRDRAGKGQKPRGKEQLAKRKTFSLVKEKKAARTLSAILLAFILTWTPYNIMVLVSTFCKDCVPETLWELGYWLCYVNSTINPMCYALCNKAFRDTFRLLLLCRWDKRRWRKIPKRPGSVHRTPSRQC
Experimental: as §1, §2

Endothelin-ETA = Endothelin-ETA (Homo sapiens, UniProt P25101); experiment: Receptor binding Endothelin-ETA; conditions: radioligand [125I]-endothelin-1, read-out: Ki(nM) Compound 1
Endothelin-ETA, sequence (P25101 21-427): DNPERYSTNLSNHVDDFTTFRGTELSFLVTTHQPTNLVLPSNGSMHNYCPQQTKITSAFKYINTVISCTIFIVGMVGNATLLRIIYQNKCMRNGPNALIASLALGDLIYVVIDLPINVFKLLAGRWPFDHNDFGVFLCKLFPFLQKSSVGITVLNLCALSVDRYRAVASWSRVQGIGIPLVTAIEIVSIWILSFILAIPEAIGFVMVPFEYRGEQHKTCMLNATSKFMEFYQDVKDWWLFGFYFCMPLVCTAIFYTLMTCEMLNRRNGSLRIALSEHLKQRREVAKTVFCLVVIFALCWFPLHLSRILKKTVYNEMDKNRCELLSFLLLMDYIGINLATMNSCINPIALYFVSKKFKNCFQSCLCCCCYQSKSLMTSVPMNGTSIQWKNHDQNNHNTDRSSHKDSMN
Experimental: as §1, §2

μ-opiate = μ-opiate (Rattus norvegicus, UniProt P33535); experiment: Receptor binding μ-opiate; conditions: radioligand [3H]-DAMGO, read-out: Ki(nM) Compound 1
μ-opiate, sequence (P33535 whole entry): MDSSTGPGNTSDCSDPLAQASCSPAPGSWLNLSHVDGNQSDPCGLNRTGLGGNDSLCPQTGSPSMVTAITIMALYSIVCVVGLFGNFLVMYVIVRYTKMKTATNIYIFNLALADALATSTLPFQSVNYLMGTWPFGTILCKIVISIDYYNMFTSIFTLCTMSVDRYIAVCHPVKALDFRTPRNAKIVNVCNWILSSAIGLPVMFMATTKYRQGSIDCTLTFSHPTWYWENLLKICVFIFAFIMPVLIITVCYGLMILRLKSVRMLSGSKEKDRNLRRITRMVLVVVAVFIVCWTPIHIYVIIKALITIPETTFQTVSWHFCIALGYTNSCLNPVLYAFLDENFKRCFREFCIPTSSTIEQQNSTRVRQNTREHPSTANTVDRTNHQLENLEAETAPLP
Experimental: as §1, §2

Compound: Nc1cc2cccc(N3CCNCC3)c2oc1=O [Compound 1, 3-amino-8-(1-piperazinyl)-2H-1-benzopyran-2-one]
- Ki (Neuropeptide Y1): > 1000 nM
- Ki (Galanin-GAL1): > 1000 nM
- Ki (CCR1): > 1000 nM
- Ki (nociceptin (ORL1)): > 1000 nM
- Ki (α1B-adrenergic): > 1000 nM
- Ki (5-HT6): > 1000 nM
- Ki (bradykinin): > 1000 nM
- Ki (5-HT2A): 630 nM
- ED50 (5-HT1A): 0.12 mg/kg
- Ki (Muscarine-M5): > 1000 nM
- Ki (Neurotensin-NT1): > 1000 nM
- Ki (Histamine-H1): > 1000 nM
- Ki (Prostaglandin-I2): > 1000 nM
- Ki (nicotine): > 10000 nM
- Ki (Neurokinin-NK2): > 1000 nM
- Ki (Glycine strychn. insens.): > 10000 nM
- Ki (Muscarine-M1): > 1000 nM
- Ki (Endothelin-ETA): > 1000 nM
- Ki (μ-opiate): > 1000 nM
